Assays:
Bothrops moojeni venom = experiment: Thrombelastography in human plasma of venom procoagulant activity after isolated exposure of venom to compounds; type: biochemical; conditions: venom exposed to 100 μM carboplatin, 1 mM CORM-2 or both; venom 2 μg/ml in plasma
Method: (§1) Thrombelastographic analyses. The volumes of subsequently described plasmatic and other additives summed to a final volume of 360 μl. Samples were composed of 320 μl of plasma; 16.4 μl of PBS, 20 μl of 200 mM CaCl2), and 3.6 μl of PBS or venom mixture, which were pipetted into a disposable cup in a Thrombelastograph® hemostasis system (Model 5000, Haemonetics Inc., Braintree, MA, USA) at 37° C., and then rapidly mixed by moving the cup up against and then away from the plastic pin five times. The following viscoelastic parameters described previously (see, Nielsen V G (2019) J Thromb Thrombolysis 47, 73-79; Gessner G, et al., (2017) Eur J Pharmacol 815, 33-41; Nielsen V G, Wagner M T, Frank N (2020) Int J Mol Sci 21, 2082; Lazić D, Arsenijević A, Puchta R, Bugarčić ŽD, Rilak A (2016) Dalton Trans 45, 4633; Hanif M, et al., (2017) ChemPlusChem 82, 841-847) were measured: time to maximum rate of thrombus generation (TMRTG): this is the time interval (minutes) observed prior to maximum speed of clot growth; maximum rate of thrombus generation (MRTG): this is the maximum velocity of clot growth observed (dynes/cm^2/second); and total thrombus generation (TTG, dynes/cm^2), the final viscoelastic resistance observed after clot formation.
(§2) B. moojeni. This venom was exposed to 0 or 1 mM CORM-2 in the presence of 0 or 100 μM RuCl3 in PBS for at least 5 minutes at room temperature prior to placement into plasma followed immediately with commencement of thrombelastographic analysis. The final concentration of this venom in plasma was 2 μg/ml.
(§3) Given the aforementioned, the experimental conditions utilized were: 1) V condition—venom in PBS; 2) Ru(II) condition—venom exposed to CORM-2; 3) Ru(III) condition—venom exposed to RuCl3; 4) Ru(II+III) condition—venom exposed to CORM-2 and RuCl3 simultaneously. After the 5 minute period at room temperature, 3.6 μl of one of these solutions was added to the plasma sample in the plastic thrombelastograph cup.
(§4) The volumes of subsequently described plasmatic and other additives summed to a final volume of 360 μl. Samples were composed of 320 μl of plasma; 16.4 μl of PBS, 20 μl of 200 mM CaCl2), and 3.6 μl of PBS or venom mixture, which were pipetted into a disposable cup in a Thrombelastograph® hemostasis system (Model 5000, Haemonetics Inc., Braintree, MA, USA) at 37° C., and then rapidly mixed by moving the cup up against and then away from the plastic pin five times. The following viscoelastic parameters described previously (see, Nielsen, V. G. J Thromb Thrombolysis 2019, 47, 73-79; Gessner, G.; et al., Eur J Pharmacol 2017, 815, 33-41; Nielsen, V. G.; Wagner, M. T.; Frank, N. Int J Mol Sci 2020, 21, 2082; Lazid, D.; et al., Dalton Trans 2016, 45, 4633; Hanif, M.; et al., ChemPlusChem 2017, 82, 841-847) were measured: time to maximum rate of thrombus generation (TMRTG): this is the time interval (minutes) observed prior to maximum speed of clot growth; maximum rate of thrombus generation (MRTG): this is the maximum velocity of clot growth observed (dynes/cm2/second); and total thrombus generation (TTG, dynes/cm2), the final viscoelastic resistance observed after clot formation.
as §2, with “CORM-2 or CORM-3” for “CORM-2”, “analysis. This venom was also exposed to 0 or 1 mM CORM-2 in the presence of 0 or 100 μM carboplatin in another series of experiments.” for “analysis.”
Given the aforementioned, the experimental conditions utilized were: 1) V condition—venom in PBS; 2) Ru(II) condition—venom exposed to CORM-2 or CORM-3; 3) Ru(III) condition—venom exposed to RuCl3; 4) Ru(II+III) condition—venom exposed to CORM-2 or CORM-3 and RuCl3 simultaneously; 5) Pt(II) condition—venom exposed to carboplatin; and 6) Pt+Ru condition—venom exposed to carboplatin and CORM-2.

[1] = tested on: Calloselasma rhodostoma venom; experiment: as above; type: biochemical; conditions: venom exposed to 100 μM carboplatin, 100 μM CORM-2 or both; venom 5 μg/ml in plasma
Method: as §1
C. rhodostoma. […] The final concentration of this venom in plasma was 5 μg/ml.
as §3, §4
C. rhodostoma. […] This venom was also exposed to 0 or 100 μM CORM-2 in the presence of 0 or 100 μM carboplatin in another series of experiments. The final concentration of this venom in plasma was 5 μg/ml.

Structure (SMILES): N.N.O=C([O-])C1(C(=O)[O-])CCC1.[Pt+2] [carboplatin, reference compound]
- coagulation kinetic parameters (Bothrops moojeni venom): no significant change in any of the coagulation kinetic parameters
- procoagulant activity of venom [1]: no significant effect
